For test [1], the system named is CaCo2 monolayers. As to the kind of experiment: Lucifer Yellow (LY) permeability assay through CaCo2 monolayers. Format: cell-based. The arrangement: key to Enhanced LY permeability: + indicates an enhancement of the permeability of the tight junctions were observed; − indicates no enhancement of permeability was observed. Conditions: CaCo2 monolayers, Lucifer Yellow flux. An excerpt:
(§1) Agonists of tight junctions can be identified by their ability to enhance the flux of compounds (e.g. ions, Lucifer Yellow) through a cell monolayer that comprises tight junctions; or by their ability to reduce TEER across a cell monolayer that comprises tight junctions. Treatment of CaCo2 monolayers with peptide FCIGRL (SEQ ID NO: 1) led to a 51-fold enhancement of Lucifer Yellow permeability through CaCo2 monolayers compared to vehicle alone.
(§2) Tight junction agonists can be identified and tested using the following method:
(§3) Determination of TEER and Lucifer Yellow Flux
(§4) Prepare Modified Hank's Balanced Salt Solution (MHBSS) by obtaining 1 L bottle of HBSS removing 10 ml of HBSS and replacing it with 10 ml HEPES buffer pH 7.0. Adjust pH to 7.4±0.1 using concentrated NaOH (10N).
(§5) Remove CaCo-2 cells from incubator, grown on 12-well, 3.0 μM, polycarbonate Transwell® filters (Corning) and record passage#, date cells seeded and age in days.
(§6) Aspirate cell culture medium from both the apical (AP) and basolateral (BL) compartments, replacing with 0.5 ml and 1.5 ml of MHBSS, respectively. Incubate cells at 37° C. for 30 minutes.
(§7) Aspirate solution from the apical compartment of each filter (n=3 per condition) and replace with 0.5 ml of control and test solutions containing Lucifer Yellow and test compound if appropriate.
(§8) Place all plates into incubator set at 37° C. (±0.2), 50 RPM (±5) for a total of 180 minutes.
At t=60, 120 and 180 minutes remove […] from each basolateral compartment and place it in a 96-well plate for Lucifer Yellow analysis, replace with 100 μl of MHBSS.
Make a Lucifer Yellow standard curve with the following dilutions (7500 μM, 3750 μM, 750 μM, 375 μM, 37.5 μM, 7.5 μM, 3.75 μM, 0.75 μM) and pipette 100 μL of each into a 96-well plate except for the first three standards mentioned above which require a 1:10 dilutions prior to transferring to the 96-well plate.
Harvest the remaining start solutions and what is left in each apical compartment into 1.5 ml vials. Freeze at −20° C. for future analysis.
Analyze each 96-well plate in a Tecan Spectra Fluor Plus using Magellan at 485 and 535 nm.
(§9) Cells: CaCo-2 cells passage 40-60 grown on Transwell® plates for 21-28 days
(§10) Culture Medium: DMEM supplemented with 10% fetal bovine serum, 1% NEAA, 1% Penn/Strep
(§11) Buffers: Hank's Balanced Salt Solution (HBSS) without calcium and magnesium
(§12) Flasks: 100×20 mm Tissue culture dish Falcon.
(§13) Plates: 12 well polycarbonate Transwell® filters; 0.3 uM pore size
In general terms: Caco-2 monolayers are a common model of the intestinal barrier.

The subject of test [2] is CaCo2 monolayers. As to the kind of experiment: Trans Epithelial Electric Resistance (TEER) across CaCo2 monolayers. Conditions: CaCo2 monolayers. The arrangement: key to Reduced TEER: + indicates an enhancement of the permeability of the tight junctions were observed; − indicates no enhancement of permeability was observed. Format: cell-based.
From the text: as §1
Treatment of CaCo2 monolayers with peptide FCIGRL led to a 16-fold decrease in TEER across CaCo2 monolayers compared to vehicle alone.
as §2, §3, §4, §5, §6
Using the MilliCell®-ERS instrument (Millipore), measure and record the transepithelial electrical resistance (TEER) across each filter and record.
as §7, §8
At t=30, 60, 120 and 180 minutes, measure and record the transepithelial electrical resistance (TEER) across each filter using the MilliCell-ERS instrument.
as §9, §10, §11, §12, §13

Where no end group is shown, it is not given here. [ ]: non-standard residue; d: D form. AllylGly = C=CC[C@H](N)C(=O)O

On to “49 (F[AllylGly]IFRL-NH2; N-terminus assumed; SMILES C=CC[C@H](NC(=O)[C@@H](N)Cc1ccccc1)C(=O)N[C@H](C(=O)N[C@@H](Cc1ccccc1)C(=O)N[C@@H](CCCNC(=N)N)C(=O)N[C@@H](CC(C)C)C(N)=O)[C@@H](C)CC) [compound 49]”, for which the “Enhanced LY permeability” value in the test on CaCo2 monolayers [1] was “+”. The “Reduced TEER” value with CaCo2 monolayers [2] is “+”.

For “84 (F[AllylGly]IGRN-NH2; N-terminus assumed; SMILES C=CC[C@H](NC(=O)[C@@H](N)Cc1ccccc1)C(=O)N[C@H](C(=O)NCC(=O)N[C@@H](CCCNC(=N)N)C(=O)N[C@@H](CC(N)=O)C(N)=O)[C@@H](C)CC) [compound 84]”, the “Enhanced LY permeability” value in the test with CaCo2 monolayers [1] is “+”. Moreover, the “Reduced TEER” value in the test with CaCo2 monolayers [2] is listed as “+”.

For the substance “20 (R[AllylGly]IGRL-NH2; N-terminus assumed; SMILES C=CC[C@H](NC(=O)[C@@H](N)CCCNC(=N)N)C(=O)N[C@H](C(=O)NCC(=O)N[C@@H](CCCNC(=N)N)C(=O)N[C@@H](CC(C)C)C(N)=O)[C@@H](C)CC) [compound 20]”, in the test on CaCo2 monolayers [1], the “Enhanced LY permeability” value is listed as “+”. Further, the “Reduced TEER” value in the test with CaCo2 monolayers [2] is on record as “−”.

In the case of “51 (F[AllylGly]IKRL-NH2; N-terminus assumed; SMILES C=CC[C@H](NC(=O)[C@@H](N)Cc1ccccc1)C(=O)N[C@H](C(=O)N[C@@H](CCCCN)C(=O)N[C@@H](CCCNC(=N)N)C(=O)N[C@@H](CC(C)C)C(N)=O)[C@@H](C)CC) [compound 51]”, in the test with CaCo2 monolayers [1], the “Enhanced LY permeability” value is recorded as “−”. In the test with CaCo2 monolayers [2], the “Reduced TEER” value is listed as “−”.

For the substance “38 (F[AllylGly]YGRL-NH2; N-terminus assumed; SMILES C=CC[C@H](NC(=O)[C@@H](N)Cc1ccccc1)C(=O)N[C@@H](Cc1ccc(O)cc1)C(=O)NCC(=O)N[C@@H](CCCNC(=N)N)C(=O)N[C@@H](CC(C)C)C(N)=O) [compound 38]”, in the test with CaCo2 monolayers [1], the “Enhanced LY permeability” value is listed as “+”. The “Reduced TEER” value in the test with CaCo2 monolayers [2] is “+”.

Take “46 (F[AllylGly]IDRL-NH2; N-terminus assumed; SMILES C=CC[C@H](NC(=O)[C@@H](N)Cc1ccccc1)C(=O)N[C@H](C(=O)N[C@@H](CC(=O)O)C(=O)N[C@@H](CCCNC(=N)N)C(=O)N[C@@H](CC(C)C)C(N)=O)[C@@H](C)CC) [compound 46]”: the “Enhanced LY permeability” value in the test with CaCo2 monolayers [1] is listed as “+”. In the test with CaCo2 monolayers [2], the “Reduced TEER” value is listed as “+”.

For “14 (D[AllylGly]IGRL-NH2; N-terminus assumed; SMILES C=CC[C@H](NC(=O)[C@@H](N)CC(=O)O)C(=O)N[C@H](C(=O)NCC(=O)N[C@@H](CCCNC(=N)N)C(=O)N[C@@H](CC(C)C)C(N)=O)[C@@H](C)CC) [compound 14]”, the “Reduced TEER” value in the test on CaCo2 monolayers [2] is “−”.

Consider “18 (H[AllylGly]IGRL-NH2; N-terminus assumed; SMILES C=CC[C@H](NC(=O)[C@@H](N)Cc1c[nH]cn1)C(=O)N[C@H](C(=O)NCC(=O)N[C@@H](CCCNC(=N)N)C(=O)N[C@@H](CC(C)C)C(N)=O)[C@@H](C)CC) [compound 18]”, for which the “Enhanced LY permeability” value in the test with CaCo2 monolayers [1] is on record as “−”. Also, the “Reduced TEER” value with CaCo2 monolayers [2] was “−”.

For “62 (F[AllylGly]IGKL-NH2; N-terminus assumed; SMILES C=CC[C@H](NC(=O)[C@@H](N)Cc1ccccc1)C(=O)N[C@H](C(=O)NCC(=O)N[C@@H](CCCCN)C(=O)N[C@@H](CC(C)C)C(N)=O)[C@@H](C)CC) [compound 62]”, the “Enhanced LY permeability” value in the test with CaCo2 monolayers [1] was “+”. The “Reduced TEER” value with CaCo2 monolayers [2] is given as “+”.

Regarding “32 (F[AllylGly]DGRL-NH2; N-terminus assumed; SMILES C=CC[C@H](NC(=O)[C@@H](N)Cc1ccccc1)C(=O)N[C@@H](CC(=O)O)C(=O)NCC(=O)N[C@@H](CCCNC(=N)N)C(=O)N[C@@H](CC(C)C)C(N)=O) [compound 32]”, the “Enhanced LY permeability” value in the test with CaCo2 monolayers [1] is “+”. In the test with CaCo2 monolayers [2], the “Reduced TEER” value was “+”.

For “78 (F[AllylGly]IGRG-NH2; N-terminus assumed; SMILES C=CC[C@H](NC(=O)[C@@H](N)Cc1ccccc1)C(=O)N[C@H](C(=O)NCC(=O)N[C@@H](CCCNC(=N)N)C(=O)NCC(N)=O)[C@@H](C)CC) [compound 78]”, in the test with CaCo2 monolayers [1], the “Enhanced LY permeability” value is given as “+”. Besides, the “Reduced TEER” value with CaCo2 monolayers [2] was “−”.

Consider “72 (F[AllylGly]IGVL-NH2; N-terminus assumed; SMILES C=CC[C@H](NC(=O)[C@@H](N)Cc1ccccc1)C(=O)N[C@H](C(=O)NCC(=O)N[C@H](C(=O)N[C@@H](CC(C)C)C(N)=O)C(C)C)[C@@H](C)CC) [compound 72]”, for which the “Enhanced LY permeability” value with CaCo2 monolayers [1] is recorded as “−”. Further, the “Reduced TEER” value in the test with CaCo2 monolayers [2] is given as “+”.

With “34 (F[AllylGly]QGRL-NH2; N-terminus assumed; SMILES C=CC[C@H](NC(=O)[C@@H](N)Cc1ccccc1)C(=O)N[C@@H](CCC(N)=O)C(=O)NCC(=O)N[C@@H](CCCNC(=N)N)C(=O)N[C@@H](CC(C)C)C(N)=O) [compound 34]”, the “Enhanced LY permeability” value in the test with CaCo2 monolayers [1] is on record as “+”. The “Reduced TEER” value with CaCo2 monolayers [2] is listed as “+”.

On to “75 (F[AllylGly]IGRR-NH2; N-terminus assumed; SMILES C=CC[C@H](NC(=O)[C@@H](N)Cc1ccccc1)C(=O)N[C@H](C(=O)NCC(=O)N[C@@H](CCCNC(=N)N)C(=O)N[C@@H](CCCNC(=N)N)C(N)=O)[C@@H](C)CC) [compound 75]”, for which the “Enhanced LY permeability” value in the test with CaCo2 monolayers [1] is on record as “+”. Besides, the “Reduced TEER” value in the test with CaCo2 monolayers [2] is given as “−”.

As to “68 (F[AllylGly]IGTL-NH2; N-terminus assumed; SMILES C=CC[C@H](NC(=O)[C@@H](N)Cc1ccccc1)C(=O)N[C@H](C(=O)NCC(=O)N[C@H](C(=O)N[C@@H](CC(C)C)C(N)=O)[C@@H](C)O)[C@@H](C)CC) [compound 68]”, the “Reduced TEER” value in the test with CaCo2 monolayers [2] is listed as “+”.

For the substance “27 (F[AllylGly]FGRL-NH2; N-terminus assumed; SMILES C=CC[C@H](NC(=O)[C@@H](N)Cc1ccccc1)C(=O)N[C@@H](Cc1ccccc1)C(=O)NCC(=O)N[C@@H](CCCNC(=N)N)C(=O)N[C@@H](CC(C)C)C(N)=O) [compound 27]”, in the test on CaCo2 monolayers [1], the “Enhanced LY permeability” value is on record as “+”. For the same substance, in the test with CaCo2 monolayers [2], the “Reduced TEER” value is reported as “+”.

Consider “5 (M[AllylGly]IGRL-NH2; N-terminus assumed; SMILES C=CC[C@H](NC(=O)[C@@H](N)CCSC)C(=O)N[C@H](C(=O)NCC(=O)N[C@@H](CCCNC(=N)N)C(=O)N[C@@H](CC(C)C)C(N)=O)[C@@H](C)CC) [compound 5]”, for which, in the test on CaCo2 monolayers [1], the “Enhanced LY permeability” value is “+”. In addition, in the test on CaCo2 monolayers [2], the “Reduced TEER” value is on record as “−”.

As for “60 (F[AllylGly]IGAL-NH2; N-terminus assumed; SMILES C=CC[C@H](NC(=O)[C@@H](N)Cc1ccccc1)C(=O)N[C@H](C(=O)NCC(=O)N[C@@H](C)C(=O)N[C@@H](CC(C)C)C(N)=O)[C@@H](C)CC) [compound 60]”, the “Enhanced LY permeability” value with CaCo2 monolayers [1] is listed as “+”.

With “70 (F[AllylGly]IGWL-NH2; N-terminus assumed; SMILES C=CC[C@H](NC(=O)[C@@H](N)Cc1ccccc1)C(=O)N[C@H](C(=O)NCC(=O)N[C@@H](Cc1c[nH]c2ccccc12)C(=O)N[C@@H](CC(C)C)C(N)=O)[C@@H](C)CC) [compound 70]”, in the test on CaCo2 monolayers [1], the “Enhanced LY permeability” value was “+”.

On to “69 (F[AllylGly]IGIL-NH2; N-terminus assumed; SMILES C=CC[C@H](NC(=O)[C@@H](N)Cc1ccccc1)C(=O)N[C@H](C(=O)NCC(=O)N[C@H](C(=O)N[C@@H](CC(C)C)C(N)=O)[C@@H](C)CC)[C@@H](C)CC) [compound 69]”, for which the “Reduced TEER” value in the test on CaCo2 monolayers [2] is given as “−”.

For the substance “9 (T[AllylGly]IGRL-NH2; N-terminus assumed; SMILES C=CC[C@H](NC(=O)[C@@H](N)[C@@H](C)O)C(=O)N[C@H](C(=O)NCC(=O)N[C@@H](CCCNC(=N)N)C(=O)N[C@@H](CC(C)C)C(N)=O)[C@@H](C)CC) [compound 9]”, in the test with CaCo2 monolayers [2], the “Reduced TEER” value is listed as “−”.

For the substance “81 (F[AllylGly]IGRT-NH2; N-terminus assumed; SMILES C=CC[C@H](NC(=O)[C@@H](N)Cc1ccccc1)C(=O)N[C@H](C(=O)NCC(=O)N[C@@H](CCCNC(=N)N)C(=O)N[C@H](C(N)=O)[C@@H](C)O)[C@@H](C)CC) [compound 81]”, in the test with CaCo2 monolayers [1], the “Enhanced LY permeability” value is recorded as “−”.

For the origin of these results see US8557763B2, “Synthetic peptides that enhance tight junction permeability” (Alba Therapeutics Corporation, priority 2007, dated 2013).
